Laboratory results from patent publication EP4467141A1, “PYRAZOLO-QUINOLINES AS SELECTIVE INHIBITORS OF GENOTOXIC STRESS-INDUCED IKK/NF- KB PATHWAYS FOR CANCER THERAPY” (Max-Delbrück-Centrum für Molekulare Medizin in der …, priority 2023, dated 2024).
Read-outs that look alike come from different tables or passages of the source.

Experiments:
Assay in all cases: Kinase panel study
Type in all cases: biochemical
Conditions in all cases: for inhibition at 1 µM: 1000nM
ALK = biological target: T1, ALK (Homo sapiens, UniProt Q9UM73)
T1 construct: purchased Thermo Fisher Scientific
Summary of the method: (§1)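 Outsourced panel screen. Format: ZLyte or Adapta, run per the manufacturer's procedures. Read-out: inhibition (%) at a single dose of 10 µM or 1 µM; IC50s also generated.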

FRAP1 (mTOR) = biological target: T2, FRAP1 (mTOR) (Homo sapiens, UniProt P42345)
T2 construct: purchased Thermo Fisher Scientific
Summary of the method: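 Inhibition was measured in an outsourced in vitro kinase panel using the ZLyte or Adapta format under the provider's standard procedures. Values are percent inhibition at 10 µM or 1 µM compound, and IC50s were also obtained.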

IKBKB (IKK beta) = biological target: T3, IKBKB (IKK beta) (Homo sapiens, UniProt O14920)
T3 construct: purchased Thermo Fisher Scientific
T3 sequence (O14920 1-756): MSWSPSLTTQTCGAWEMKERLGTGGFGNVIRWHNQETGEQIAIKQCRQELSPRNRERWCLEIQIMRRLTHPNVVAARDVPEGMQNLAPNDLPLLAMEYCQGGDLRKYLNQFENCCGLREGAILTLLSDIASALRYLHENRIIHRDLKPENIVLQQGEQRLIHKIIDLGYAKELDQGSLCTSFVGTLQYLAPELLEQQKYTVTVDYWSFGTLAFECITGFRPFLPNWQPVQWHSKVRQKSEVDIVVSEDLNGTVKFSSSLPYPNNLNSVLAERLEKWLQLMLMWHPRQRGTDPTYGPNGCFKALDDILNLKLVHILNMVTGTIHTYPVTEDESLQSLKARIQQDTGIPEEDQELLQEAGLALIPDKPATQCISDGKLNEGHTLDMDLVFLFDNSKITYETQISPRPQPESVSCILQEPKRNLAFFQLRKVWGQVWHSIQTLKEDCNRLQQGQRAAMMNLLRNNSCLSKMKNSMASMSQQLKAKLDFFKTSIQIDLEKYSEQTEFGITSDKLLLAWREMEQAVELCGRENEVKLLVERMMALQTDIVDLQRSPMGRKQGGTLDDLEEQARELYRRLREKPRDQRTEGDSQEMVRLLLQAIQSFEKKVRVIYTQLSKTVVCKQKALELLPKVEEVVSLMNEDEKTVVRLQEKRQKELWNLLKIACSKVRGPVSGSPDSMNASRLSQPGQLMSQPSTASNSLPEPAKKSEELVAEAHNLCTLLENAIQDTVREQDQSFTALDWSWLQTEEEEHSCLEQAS
Summary of the method: as §1

IRAK4 = biological target: T4, IRAK4 (Homo sapiens, UniProt Q9NWZ3)
T4 construct: purchased Thermo Fisher Scientific
T4 sequence (Q9NWZ3 1-460): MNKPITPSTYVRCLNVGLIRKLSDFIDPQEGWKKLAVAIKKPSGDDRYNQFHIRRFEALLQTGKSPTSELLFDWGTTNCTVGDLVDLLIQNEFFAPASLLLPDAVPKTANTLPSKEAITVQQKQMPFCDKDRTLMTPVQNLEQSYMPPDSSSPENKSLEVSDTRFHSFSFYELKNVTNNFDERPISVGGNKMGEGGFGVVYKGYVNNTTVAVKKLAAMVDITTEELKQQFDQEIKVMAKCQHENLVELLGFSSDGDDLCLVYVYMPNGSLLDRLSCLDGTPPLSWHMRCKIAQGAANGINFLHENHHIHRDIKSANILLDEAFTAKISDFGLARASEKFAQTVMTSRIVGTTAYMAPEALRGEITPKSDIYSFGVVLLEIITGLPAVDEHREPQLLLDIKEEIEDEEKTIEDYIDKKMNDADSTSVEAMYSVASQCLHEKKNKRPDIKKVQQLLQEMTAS
Summary of the method: as §1

PRKCN (PKD3) = biological target: T5, PRKCN (PKD3) (Homo sapiens, UniProt O94806)
T5 construct: purchased Thermo Fisher Scientific
T5 sequence (O94806 1-890): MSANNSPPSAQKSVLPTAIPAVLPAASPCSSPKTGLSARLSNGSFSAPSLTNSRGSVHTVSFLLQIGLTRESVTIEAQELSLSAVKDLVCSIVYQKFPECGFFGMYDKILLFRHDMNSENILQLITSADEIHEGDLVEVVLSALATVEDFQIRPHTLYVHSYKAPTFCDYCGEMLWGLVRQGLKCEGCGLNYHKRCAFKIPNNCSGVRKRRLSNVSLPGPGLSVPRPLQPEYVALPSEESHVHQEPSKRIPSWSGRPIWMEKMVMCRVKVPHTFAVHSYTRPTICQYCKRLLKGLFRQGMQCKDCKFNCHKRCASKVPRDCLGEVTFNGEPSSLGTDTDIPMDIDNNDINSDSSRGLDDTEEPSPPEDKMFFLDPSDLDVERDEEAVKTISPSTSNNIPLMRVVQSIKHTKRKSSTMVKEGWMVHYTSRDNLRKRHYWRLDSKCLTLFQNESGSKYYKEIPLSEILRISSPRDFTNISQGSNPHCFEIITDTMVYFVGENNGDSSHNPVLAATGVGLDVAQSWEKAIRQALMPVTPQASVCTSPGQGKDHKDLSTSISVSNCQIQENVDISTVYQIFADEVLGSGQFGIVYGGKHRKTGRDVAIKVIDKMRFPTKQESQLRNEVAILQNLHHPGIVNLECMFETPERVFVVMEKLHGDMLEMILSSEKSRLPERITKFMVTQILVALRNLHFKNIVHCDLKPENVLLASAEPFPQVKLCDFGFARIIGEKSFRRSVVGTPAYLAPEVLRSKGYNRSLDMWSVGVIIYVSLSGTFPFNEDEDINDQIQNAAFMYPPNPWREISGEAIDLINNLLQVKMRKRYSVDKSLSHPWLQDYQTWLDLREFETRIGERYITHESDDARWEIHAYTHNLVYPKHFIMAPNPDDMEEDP
Summary of the method: as §1

[1] = read-out: Percentage of inhibition
[2] = 10000nM, read-out: Percentage of inhibition
[3] = ALK, compound at 10µM, read-out: % of Inhibition
[4] = FRAP1 (mTOR), compound at 10µM, read-out: % of Inhibition
[5] = IKBKB (IKK beta), compound at 10µM, read-out: % of Inhibition
[6] = IRAK4, compound at 10µM, read-out: % of Inhibition
[7] = PRKCN (PKD3), compound at 10µM, read-out: % of Inhibition

T1 sequence (Q9UM73 19-1620): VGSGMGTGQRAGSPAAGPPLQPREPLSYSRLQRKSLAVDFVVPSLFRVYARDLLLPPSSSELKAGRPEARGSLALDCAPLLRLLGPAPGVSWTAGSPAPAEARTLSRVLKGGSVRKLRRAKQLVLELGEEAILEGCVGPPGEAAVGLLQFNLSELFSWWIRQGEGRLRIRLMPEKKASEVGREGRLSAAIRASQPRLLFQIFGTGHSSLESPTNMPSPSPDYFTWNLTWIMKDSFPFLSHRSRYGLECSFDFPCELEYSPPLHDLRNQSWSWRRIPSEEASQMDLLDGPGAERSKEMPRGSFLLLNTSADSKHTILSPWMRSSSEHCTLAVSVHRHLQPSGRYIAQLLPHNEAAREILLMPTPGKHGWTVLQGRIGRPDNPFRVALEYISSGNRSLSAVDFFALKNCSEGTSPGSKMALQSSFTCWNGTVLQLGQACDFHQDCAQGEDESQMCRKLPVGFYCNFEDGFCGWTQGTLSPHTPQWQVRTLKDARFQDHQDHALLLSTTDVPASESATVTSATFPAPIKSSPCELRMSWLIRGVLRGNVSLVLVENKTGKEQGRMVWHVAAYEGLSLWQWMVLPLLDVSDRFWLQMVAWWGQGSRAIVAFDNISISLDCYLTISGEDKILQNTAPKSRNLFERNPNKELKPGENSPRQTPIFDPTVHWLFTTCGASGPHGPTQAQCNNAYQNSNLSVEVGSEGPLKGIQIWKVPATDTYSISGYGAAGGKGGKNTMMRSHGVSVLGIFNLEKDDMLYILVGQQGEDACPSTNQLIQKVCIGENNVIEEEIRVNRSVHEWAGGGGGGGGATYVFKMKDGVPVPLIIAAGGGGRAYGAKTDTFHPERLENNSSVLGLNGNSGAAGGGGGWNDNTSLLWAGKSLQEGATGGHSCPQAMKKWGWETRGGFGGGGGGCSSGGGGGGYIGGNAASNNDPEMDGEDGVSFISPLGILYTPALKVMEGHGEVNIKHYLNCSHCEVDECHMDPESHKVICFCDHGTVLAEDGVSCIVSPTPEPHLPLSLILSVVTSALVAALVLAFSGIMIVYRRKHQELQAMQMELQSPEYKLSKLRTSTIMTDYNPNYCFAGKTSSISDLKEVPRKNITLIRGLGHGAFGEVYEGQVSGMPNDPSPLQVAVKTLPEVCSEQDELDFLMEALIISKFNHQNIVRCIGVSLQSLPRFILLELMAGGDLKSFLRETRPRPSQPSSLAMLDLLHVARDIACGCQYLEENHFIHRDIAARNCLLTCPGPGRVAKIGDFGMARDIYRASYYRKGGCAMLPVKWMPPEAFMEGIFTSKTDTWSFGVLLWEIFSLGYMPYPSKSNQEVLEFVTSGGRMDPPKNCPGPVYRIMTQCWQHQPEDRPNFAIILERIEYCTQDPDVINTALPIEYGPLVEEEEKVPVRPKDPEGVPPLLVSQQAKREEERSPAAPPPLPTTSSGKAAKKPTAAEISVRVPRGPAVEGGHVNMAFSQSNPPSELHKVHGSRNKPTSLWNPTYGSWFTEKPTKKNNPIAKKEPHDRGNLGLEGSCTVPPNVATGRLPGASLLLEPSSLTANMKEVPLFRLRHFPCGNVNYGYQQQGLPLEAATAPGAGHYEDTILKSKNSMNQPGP

SMILES | inhibition at 1 µM (ALK; [1]) [%] | inhibition at 10 µM (ALK; [2]) [%] | inhibition at 1 µM (FRAP1 (mTOR); [1]) [%] | inhibition at 10 µM (FRAP1 (mTOR); [2]) [%] | IC50 (FRAP1 (mTOR); in vitro kinase panel, sub-2000 nM criterion) [nM] | inhibition at 1 µM (IKBKB (IKK beta); [1]) [%] | inhibition at 10 µM (IKBKB (IKK beta); [2]) [%] | inhibition at 1 µM (IRAK4; [1]) [%] | inhibition at 10 µM (IRAK4; [2]) [%] | inhibition at 1 µM (PRKCN (PKD3); [1]) [%] | inhibition at 10 µM (PRKCN (PKD3); [2]) [%] | inhibition at 10 µM (ALK; [3]) [%] | inhibition at 10 µM (FRAP1 (mTOR); [4]) [%] | inhibition at 10 µM (IKBKB (IKK beta); [5]) [%] | inhibition at 10 µM (IRAK4; [6]) [%] | inhibition at 10 µM (PRKCN (PKD3); [7]) [%]
COc1ccc2c(c1OC)c(=O)n1c3ccc(O)cc3c3ccnc2c31 [MW01, 5-Hydroxy-10,11-dimethoxy-9H-benzo[c]indolo[3,2,1-ij][1,5]naphthyridin-9-one] | 18 | 40 | 31 | 80 | ≥ 2000 | 4 | 12 | 19 | 50 | 34 | 57 |  |  |  |  | 
COc1ccc2c(c1)c1ccnc3c4nc(OC)ccc4c(=O)n2c13 [MW01-E6, 5,15-dimethoxy-1,11,14-triazapentacyclo[10.7.1,0^2,7.0^8,^20.0^13,^18]icosa-2(7),3,5,8(20),9,11,13(18),14,16-nonaen-19-one] |  |  |  |  |  |  |  |  |  |  |  | 19 | 12 | 10 | -9 | -8
O=c1c2cc(O)ccc2c2nccc3c4cc(O)ccc4n1c32 [MW01-E10, 5,16-dihydroxy-1,11-diazapentacyclo[10.7.1.0^2,^7.0^8,^20.0^13,^18]icosa-2(7),3,5,8(20),9,11,13(18),14,16-nonaen-19-one] |  |  |  |  |  |  |  |  |  |  |  | 75 | 42 | 31 | -186 | 74
COc1ccc2c(c1)c1ccnc3c4ccnc(OC)c4c(=O)n2c13 [MW01-E14, 5,17-dimethoxy-1,11,16-triazapentacyclo[10.7.1.0^2,^7.0^8,^20.0^13,^18]icosa-2(7),3,5,8(20),9,11,13(18),14,16-nonaen-19-one] |  |  |  |  |  |  |  |  |  |  |  | 15 | 26 | 16 | -15 | -1
O=c1c2cnccc2c2nccc3c4cc(O)ccc4n1c32 [MW01-E18, 5-hydroxy-1,11,16-triazapentacyclo[10.7.1.0^2,^7.0^8,^20.0^13,^18]icosa-2(7),3,5,8(20),9,11,13(18),14,16-nonaen-19-one] |  |  |  |  |  |  |  |  |  |  |  | 35 | 43 | 16 | 2 | 52
COc1ccc2cc3c(N)nn(C(=O)c4cccc(N(C)C)c4)c3nc2c1 [MW05, (3-Amino-7-methoxypyrazolo[3,4-b]quinolin-1-yl)-[3-(dimethylamino)phenyl]methanone] | 0 | -2 | 31 | 81 |  | 6 | 5 | 0 | 2 | 17 | 15 |  |  |  |  | 
COc1ccc2nc3c(cc2c1)c(N)nn3C(=O)c1cccc(N(C)C)c1 [MW05-E2, 1-[3-(dimethylamino)benzoyl]-6-methoxy-1H-pyrazolo[3,4-b]quinolin-3-amine] |  |  |  |  |  |  |  |  |  |  |  | 24 | 5 | 12 | -3 | 7
